Consider 30 compounds from patent US9242996B2 (Novartis AG, priority 2013, dated 2016).

Type in all cases: biochemical
The target in test [1] is T1, activated ERK2 (Homo sapiens (Human), UniProt P28482). The test is described as follows: Activated ERK2 kinase assay, ERK2 New conditions (AlphaScreen, ERKtide phosphorylation). Conditions: 0.25 nM ERK2, 200 nM ERKtide peptide, 35 μM ATP, 30 min preincubation. A digest of the protocol: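 Read-out is AlphaScreen with anti-phospho-EGFR (Thr669) antibody after EDTA quench and overnight dark incubation. Reaction: 0.25 nM ERK2, 30 min compound preincubation, then 200 nM ERKtide plus 35 µM ATP for 2–3 h at ambient temperature, pH 7.5. IC50 by four-parameter fit.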
T1 sequence (P28482 whole entry): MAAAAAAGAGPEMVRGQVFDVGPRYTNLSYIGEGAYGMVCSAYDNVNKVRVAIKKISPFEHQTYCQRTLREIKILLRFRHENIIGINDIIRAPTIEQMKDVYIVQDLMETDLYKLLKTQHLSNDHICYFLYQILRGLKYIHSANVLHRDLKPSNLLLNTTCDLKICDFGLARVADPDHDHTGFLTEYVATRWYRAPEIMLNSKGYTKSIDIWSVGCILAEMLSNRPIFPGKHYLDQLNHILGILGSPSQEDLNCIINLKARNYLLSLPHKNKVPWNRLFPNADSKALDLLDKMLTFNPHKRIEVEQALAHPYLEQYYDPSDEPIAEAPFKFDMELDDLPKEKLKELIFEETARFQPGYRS
For orientation: In Alpha technology, singlet oxygen from a donor bead excites a nearby acceptor bead.

Test [2] concerns the target ERK2 (Homo sapiens (Human), UniProt P28482). The test is described as follows: ERK2 Alphascreen.
For test [3], the target named is T1, activated ERK2. The test is described as follows: Activated ERK2 (20 pM) Kinase Assay (AlphaScreen, ERKtide phosphorylation). Particulars: 0.02 nM ERK2, 400 nM ERKtide peptide, 35 μM ATP, 30 min preincubation. A digest of the protocol:
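AlphaScreen read-out (anti-phospho-EGFR Thr669 antibody, protein A acceptor/streptavidin donor beads) of ERKtide (400 nM) phosphorylation by 20 pM activated ERK2 at 35 μM ATP.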

pIC50: −log10 of the molar value.

ERK2, sequence (P28482 whole entry, species assumed): as the sequence (P28482 whole entry) above

A word on the pIC50: it is the negative decadic logarithm of the IC50, by convention in mol/L. A low value points to a high IC50. On to `Nc1ncc(C2CCOCC2)nc1-c1ccc(C(=O)N[C@H](CO)c2ccccc2)cc1` [Example 1, (S)-4-(3-amino-6-(tetrahydro-2H-pyran-4-yl)pyrazin-2-yl)-N-(2-hydroxy-1-phenylethyl)benzamide], for which the pIC50 in test [1] is 8.79; in test [2], 8.97. In test [2], `Nc1ncc(C2CCNCC2)cc1-c1ccc(C(=O)N[C@H](CO)c2ccccc2)c(F)c1` [Example 2, (S)-4-(2-amino-5-(piperidin-4-yl)pyridin-3-yl)-2-fluoro-N-(2-hydroxy-1-phenylethyl)benzamide] showed a pIC50 of 6.72. Regarding `Nc1ncc(C2CCOCC2)cc1-c1ccc(C(=O)N[C@H](CO)c2ccccc2)cc1` [Example 64, (S)-4-(2-amino-5-(tetrahydro-2H-pyran-4-yl)pyridin-3-yl)-N-(2-hydroxy-1-phenylethyl)benzamide], the pIC50 is 8.36 in test [3] and 8.44 in test [2]. For `Cc1cc(-c2cc(C3CCOCC3)cnc2N)ccc1C(=O)N[C@H](CO)c1ccccc1` [Example 65, (S)-4-(2-amino-5-(tetrahydro-2H-pyran-4-yl)pyridin-3-yl)-N-(2-hydroxy-1-phenylethyl)-2-methylbenzamide] the same measures were 9.16 and 8.74. With `Nc1ncc(C2CCOCC2)cc1-c1ccc(C(=O)NCc2ccccc2)cc1` [Example 66, 4-(2-amino-5-(tetrahydro-2H-pyran-4-yl)pyridin-3-yl)-N-benzylbenzamide], the pIC50 in test [3] was 7.38; in test [2], 7.26. On the same counts, the results for `CN(C)c1cccc(CNC(=O)c2ccc(-c3cc(C4CCOCC4)cnc3N)cc2)c1` [Example 67, 4-(2-amino-5-(tetrahydro-2H-pyran-4-yl)pyridin-3-yl)-N-(3-(dimethylamino)benzyl)benzamide] are 7.17 and 7.07. Consider `C[C@@H](NC(=O)c1ccc(-c2cc(C3CCOCC3)cnc2N)cc1)c1ccccc1` [Example 69, (R)-4-(2-amino-5-(tetrahydro-2H-pyran-4-yl)pyridin-3-yl)-N-(1-phenylethyl)benzamide], for which the pIC50 in test [3] is 8.00; in test [2], 7.80. Turning to `Cc1cc(C(=O)N[C@H](CO)c2ccccc2)ccc1-c1cc(C2CCOCC2)cnc1N` [Example 70, (S)-4-(2-amino-5-(tetrahydro-2H-pyran-4-yl)pyridin-3-yl)-N-(2-hydroxy-1-phenylethyl)-3-methylbenzamide], the values for the pIC50 in test [3] and in test [2] were 6.48 and 6.24, respectively.

Consider `Nc1ncc(C2CCOCC2)cc1-c1ccc(C(=O)N[C@H](CO)c2ccccc2)cc1F` [Example 71, (S)-4-(2-amino-5-(tetrahydro-2H-pyran-4-yl)pyridin-3-yl)-3-fluoro-N-(2-hydroxy-1-phenylethyl)benzamide], for which the pIC50 in test [3] was 8.06; in test [2] it was 7.76. `Nc1ncc(C2CCS(=O)(=O)CC2)cc1-c1ccc(C(=O)N[C@H](CO)c2ccccc2)cc1` [Example 77, (S)-4-(2-amino-5-(1,1-dioxidotetrahydro-2H-thiopyran-4-yl)pyridin-3-yl)-N-(2-hydroxy-1-phenylethyl)benzamide]: the results for the pIC50 in test [3] and in test [2] were 7.29 and 7.01, respectively. As to `Nc1ncc(-c2ccncc2)cc1-c1ccc(C(=O)N[C@H](CO)c2ccccc2)cc1` [Example 80, (S)-4-(6-amino-[3,4′-bipyridin]-5-yl)-N-(2-hydroxy-1-phenylethyl)benzamide], the results for the pIC50 in test [3] and in test [2] were 9.29 and 9.23, respectively. On the same counts, the results for `Cc1cnccc1-c1cnc(N)c(-c2ccc(C(=O)N[C@H](CO)c3ccccc3)cc2)c1` [Example 82, (S)-4-(6-amino-3′-methyl-3,4′-bipyridin-5-yl)-N-(2-hydroxy-1-phenylethyl)benzamide] are 9.05 and 8.67.

On to `C[C@@H]1COCCN1c1cnc(N)c(-c2ccc(C(=O)N[C@H](CO)c3ccccc3)c(F)c2)c1` [Example 84, 4-(2-amino-5-((R)-3-methylmorpholino)pyridin-3-yl)-2-fluoro-N-((S)-2-hydroxy-1-phenylethyl)benzamide], for which the pIC50 in test [3] was 8.69; in test [2] it was 8.02. On to `Nc1ncc(C2CCOCC2)cc1-c1ccc(C(=O)NCc2cccc(Cl)c2)cc1` [Example 86, 4-(2-amino-5-(tetrahydro-2H-pyran-4-yl)pyridin-3-yl)-N-(3-chlorobenzyl)benzamide], for which the results for the pIC50 in test [3] and in test [2] were 8.43 and 8.32, respectively.

Turning to `Nc1ncc(C2CCOCC2)cc1-c1ccc(C(=O)NCc2ccccc2Cl)cc1` [Example 87, 4-(2-amino-5-(tetrahydro-2H-pyran-4-yl)pyridin-3-yl)-N-(2-chlorobenzyl)benzamide], the pIC50 in test [3] is 6.68; in test [2] it was 6.58. As to `Nc1ncc(C2CCOCC2)cc1-c1ccc(C(=O)NCc2ccc(Cl)cc2)cc1` [Example 88, 4-(2-amino-5-(tetrahydro-2H-pyran-4-yl)pyridin-3-yl)-N-(4-chlorobenzyl)benzamide], the figures for the pIC50 in test [3] and in test [2] were 7.15 and 7.09, respectively. For the compound `Nc1ncc(C2CCOCC2)cc1-c1ccc(C(=O)NCc2cccc(C(F)(F)F)c2)cc1` [Example 89, 4-(2-amino-5-(tetrahydro-2H-pyran-4-yl)pyridin-3-yl)-N-(3-(trifluoromethyl)benzyl)benzamide], the pIC50 in test [3] is 7.69; in test [2], 8.01. As for `Nc1ncc(C2CCOCC2)cc1-c1ncc(C(=O)N[C@H](CO)c2ccccc2)cn1` [Example 90, (S)-2-(2-amino-5-(tetrahydro-2H-pyran-4-yl)pyridin-3-yl)-N-(2-hydroxy-1-phenylethyl)pyrimidine-5-carboxamide], the pIC50 in test [3] was 7.48; in test [2], 7.31. With `Nc1ncc(C2CCOCC2)cc1-c1ccc(C(=O)NCC2CC2)cc1` [Example 91, 4-(2-amino-5-(tetrahydro-2H-pyran-4-yl)pyridin-3-yl)-N-(cyclopropylmethyl)benzamide], the figures for the pIC50 in test [3] and in test [2] were 6.55 and 6.25, respectively. `CC(=O)Nc1cccc(CNC(=O)c2ccc(-c3cc(C4CCOCC4)cnc3N)cc2)c1` [Example 92, N-(3-acetamidobenzyl)-4-(2-amino-5-(tetrahydro-2H-pyran-4-yl)pyridin-3-yl)benzamide]: the pIC50 in test [3] is 6.87; in test [2], 6.57. Regarding `Nc1ncc(C2CCOCC2)cc1-c1ccc(C(=O)NCc2cccnc2)cc1` [Example 93, 4-(2-amino-5-(tetrahydro-2H-pyran-4-yl)pyridin-3-yl)-N-(pyridin-3-ylmethyl)benzamide], the pIC50 in test [3] is 6.30; in test [2] it was 6.05.

Regarding `Nc1ncc(C2CCOCC2)cc1-c1ccc(C(=O)N[C@H](CO)c2ccccc2)c(F)c1` [Example 94, (S)-4-(2-amino-5-(tetrahydro-2H-pyran-4-yl)pyridin-3-yl)-2-fluoro-N-(2-hydroxy-1-phenylethyl)benzamide], the pIC50 in test [3] was 9.06; in test [2], 9.04. Turning to `Cc1cc(-c2nc(C3CCOCC3)cnc2N)ccc1C(=O)N[C@H](CO)c1ccccc1` [Example 95, (S)-4-(3-amino-6-(tetrahydro-2H-pyran-4-yl)pyrazin-2-yl)-N-(2-hydroxy-1-phenylethyl)-2-methylbenzamide], the pIC50 in test [3] was 9.87; in test [2], 9.27.

For the compound `COC(=O)N1CCC(c2cnc(N)c(-c3ccc(C(=O)N[C@H](CO)c4ccccc4)cc3)c2)CC1` [Example 98, (S)-methyl 4-(6-amino-5-(4-((2-hydroxy-1-phenylethyl)carbamoyl)phenyl)pyridin-3-yl)piperidine-1-carboxylate], the pIC50 in test [3] is 7.80; in test [2] it was 7.58.

Take `Nc1ncc(N2CCOCC2)cc1-c1ccc(C(=O)N[C@H](CO)c2ccccc2)cc1` [Example 122, (S)-4-(2-amino-5-morpholinopyridin-3-yl)-N-(2-hydroxy-1-phenylethyl)benzamide]: the pIC50 in test [3] is 8.13; in test [2], 7.96. As to `Cc1cnccc1-c1cnc(N)c(-c2ccc(C(=O)N[C@H](CO)c3ccccc3)c(F)c2)n1` [Example 143, (S)-4-(3-amino-6-(3-methylpyridin-4-yl)pyrazin-2-yl)-2-fluoro-N-(2-hydroxy-1-phenylethyl)benzamide], the pIC50 is 9.44 in test [3] and 9.58 in test [2].

With `Nc1ncc(C2CCOCC2)nc1-c1ccc(C(=O)NCc2cccc(Cl)c2)c(F)c1` [Example 173, 4-(3-amino-6-(tetrahydro-2H-pyran-4-yl)pyrazin-2-yl)-N-(3-chlorobenzyl)-2-fluorobenzamide], the pIC50 in test [2] is 9.12. Regarding `Nc1ncc(C2CCOCC2)cc1-c1ccc(C(=O)NCc2ccnnc2)c(F)c1` [Example 318, 4-(2-amino-5-(tetrahydro-2H-pyran-4-yl)pyridin-3-yl)-2-fluoro-N-(pyridazin-4-ylmethyl) benzamide], the pIC50 is 6.42 in test [3] and 6.51 in test [2].

As for `COCC(=O)N[C@H]1CC[C@H](c2cnc(N)c(-c3ccc(C(=O)N[C@H](CO)c4cccc(Cl)c4)c(F)c3)n2)CC1` [Example 430, 4-(3-amino-6-((1r,4S)-4-(2-methoxy-acetamido)cyclohexyl)pyrazin-2-yl)-N-((S)-1-(3-chlorophenyl)-2-hydroxyethyl)-2-fluorobenzamide], the pIC50 in test [3] is 9.46; in test [1], 9.10. “(S)-4-(3-amino-6- (tetrahydro-2H- pyran-4- yl)pyrazin-2-yl)-2- fluoro-N-(2- hydroxy-1- phenylethyl) benzamide [Example 325]”: the pIC50 in test [3] is 9.23; in test [2], 9.26.
